The structures appear in SMILES notation.

One data set concerns EV 70. Description: Anti-enteroviral cell culture assay (MRC-5, XTT). The conditions noted are these: Enterovirus D, MRC5; ENT-70, MRC-5 cells. The data set is classed as cell-based, enterovirus type 70. The protocol:
(§1) Echovirus type 11 (ECHO 11) was purchased from ATCC (Rockville, Md.). Virus stocks were propagated and antiviral assays were performed in MRC-5 cells (ATCC). Cells were grown in minimal essential medium with 10% fetal bovine serum (Life Technologies, Gaithersburg, Md.). The ability of the compounds of this invention to protect cells against ECHO 11 infection was measured by the XTT dye reduction method (Weislow et al., J. Natl. Cancer Inst. (1989), vol. 81, 577-586). MRC-5 cells were infected with ECHO 11 at an m.o.i. of 0.003 or 0.004, respectively, or mock-infected with medium only. Infected or uninfected cells were added at 1×10^4 cells per well and incubated with appropriate concentrations of compound. Four days later, XTT/PMS was added to test plates, and the amount of formazan produced was quantified spectrophotometrically at 450/650 nm. The EC50 was calculated as the concentration of compound that increased the formazan production in compound-treated, virus-infected cells to 50% of that produced by compound-free, uninfected cells. […] The therapeutic index (TI) was calculated by dividing the CC50 by the EC50. Activity of the compounds against enterovirus type 70 (EV 70) may be measured by the same assay as described above in this section. […]

A further data set relates to HRV-14. Briefly: Antirhinoviral H1-HeLa cell culture assay (XTT cell protection). In kind it is cell-based, human rhinovirus. Particulars: Rhinovirus B, HRV14, H1-HeLa, HRV-14, H1-HeLa cells. An outline of the steps:
(§2)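 H1-HeLa cells infected with HRV (HRV-14 at m.o.i. 0.13) or mock-infected, incubated with compound for two days; protection read by XTT/PMS formazan at 450/650 nm. EC50 is the concentration restoring formazan to 50% of mock-infected controls. CC50 is from mock-infected cells, and TI = CC50/EC50.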
A general note: Tetrazolium dyes change colour on reduction, which living cells bring about.

The next data set relates to HRV-1A. The data set is described as above. The data set is classed as cell-based, human rhinovirus. Particulars: Rhinovirus A, HRV1A, H1-HeLa cells.
For the next data set, the system named is H1-HeLa cells. Description: Cytotoxicity in mock-infected cells of the antirhinoviral assay (XTT). In kind it is cell-based. An outline of the steps: as §2
Test in data set [1]: as above
In kind it is cell-based. Particulars: human, H1-HeLa cells, table line HRV-14. An outline of the steps: as §2

A further data set deals with ECHO 11. Briefly: Anti-echoviral cell culture assay (MRC-5, XTT). In kind it is cell-based, Echovirus type 11. Particulars: Enterovirus B, MRC5; ECHO-11, MRC-5 cells. The protocol:
as §1

The nature of data set [2]: Cytotoxicity in uninfected cells of the anticoxsackieviral assay (XTT). In kind it is cell-based. The conditions noted are these: human, H1-HeLa cells, table line CAV-21. How it is done: (§3) Coxsackievirus types A-21 (CAV-21) and B3 (CVB3) were purchased from American Type Culture Collection (ATCC, Rockville, Md.). Virus stocks were propagated and antiviral assays were performed in H1-HeLa cells (ATCC). Cells were grown in minimal essential medium with 10% fetal bovine serum (Life Technologies, Gaithersburg, Md.). The ability of the compounds of this invention to protect cells against either CAV-21 or CVB3 infection was measured by the XTT dye reduction method. This method is described in Weislow et al., J. Natl. Cancer Inst. (1989), vol. 81, 577-586. H1-HeLa cells were infected with CAV-21 or CVB3 at a multiplicity of infection (m.o.i.) of 0.025 or 0.075, respectively, or mock-infected with medium only. H1-HeLa cells were plated at 4×10^4 cells per well in a 96-well plate and incubated with appropriate concentrations of the test compound. One day (CVB3) or two days (CAV-21) later, XTT/PMS was added to test plates and the amount of formazan produced was quantified spectrophotometrically at 450/650 nm. The EC50 was calculated as the concentration of compound that increased the formazan production in compound-treated, virus-infected cells to 50% of that produced by compound-free, uninfected cells. […] The therapeutic index (TI) was calculated by dividing the CC50 by the EC50.

The subject of another data set is MRC-5 cells. Briefly: Cytotoxicity in uninfected cells of the anti-echoviral/anti-enteroviral assay (XTT). In kind it is cell-based. Particulars: table line ENT-70. How it is done: as §1
Test in data set [3]: as above
In kind it is cell-based. Particulars: human, MRC-5 cells, table line ECHO-11. The protocol:
as §1

In data set [4] the target is T1, rhinovirus 3C protease, serotype 14 (Human rhinovirus 14, UniProt P03303).
T1 construct: Recombinant rhinovirus 3C proteases; made in house
T1 sequence (P03303 1538-1719): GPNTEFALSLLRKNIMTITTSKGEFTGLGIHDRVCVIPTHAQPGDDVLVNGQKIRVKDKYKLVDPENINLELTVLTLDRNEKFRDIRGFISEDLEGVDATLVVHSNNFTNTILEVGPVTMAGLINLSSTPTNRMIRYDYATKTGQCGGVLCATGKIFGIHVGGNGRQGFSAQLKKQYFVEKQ
Briefly: Inhibition of rhinovirus 3C protease (FRET assay, enzyme start). The data set is classed as biochemical. The conditions noted are these: HRV-14 3C protease, progress curves, read-out: Kobs/I. A digest of the protocol: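 Recombinant serotype 14 3C protease (50-100 nM) with ~1 μM DABCYL-GRAVFQGPVG-EDANS FRET substrate in 50 mM tris pH 7.6, 1 mM EDTA, 2% DMSO. Reactions started by enzyme addition; kobs/[I] taken from fluorescence-increase progress curves.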

A further data set deals with HRV-10. Briefly: Antirhinoviral H1-HeLa cell culture assay (XTT cell protection). In kind it is cell-based. The conditions noted are these: Human rhinovirus sp., HRV10; HRV-10, H1-HeLa cells. The protocol:
In this cell protection assay, the ability of compounds to protect cells against HRV infection was measured by the XTT dye reduction method, which is described in Weislow et al., J. Natl. Cancer Inst. (1989), vol. 81, 577-586. H1-HeLa cells were infected with HRV-14 at a multiplicity of infection (m.o.i.) of 0.13 (virus particles/cell) or mock-infected with medium only. Infected or mock-infected cells were resuspended at 8×10^5 cells per ml, and incubated with appropriate concentrations of the compounds to be tested. Two days later, XTT/PMS was added to test plates and the amount of formazan produced was quantified spectrophotometrically at 450/650 nm. The EC50 value was calculated as the concentration of compound that increased the percentage of formazan production in compound-treated, virus-infected cells to 50% of that produced by compound-free, mock-infected cells. The 50% cytotoxic dose (CC50) was calculated as the concentration of compound that decreased the percentage of formazan produced in compound-treated, mock-infected cells to 50% of that produced by compound-free, mock-infected cells. The therapeutic index (TI) was calculated by dividing the CC50 value by the EC50 value.
All strains of human rhinovirus (HRV) for use in this assay were purchased from American Type Culture Collection (ATCC), except for HRV serotype-14 (produced from the infectious cDNA clone constructed by Dr. Robert Rueckert, Institute for Molecular Virology, University of Wisconsin, Madison, Wis.). HRV stocks were propagated and viral assays were performed in H1-HeLa cells (ATCC). Cells were grown in minimal essential medium with 10% fetal bovine serum, available from Life Technologies (Gaithersburg, Md.).

The subject of the next data set is CAV-21. Briefly: Anticoxsackieviral cell culture assay (H1-HeLa, XTT). In kind it is cell-based, Coxsackievirus type A-21. The conditions noted are these: Coxsackievirus; CAV-21, H1-HeLa cells. How it is done: as §3

Regarding `CCOC(=O)/C=C/[C@H](C[C@@H]1CCNC1=O)NC(=O)[C@H](Cc1ccccc1)NC(=O)c1ccc(-c2cccc3ccccc23)[nH]1` [Compound 25, 4S-{2S-[(5-Naphthalen-1-yl-1H-pyrrole-2-carbonyl)-amino]-3-phenyl-propionylamino}-5-(2-oxo-pyrrolidin-3S-yl)-pent-2-enoic acid ethyl ester], the concentration for a half-maximal effect (EC50) (as a rule, the concentration at which the effect is half-maximal) was 0.003 µM with EV 70; 0.034 µM in the data set with HRV-14; 0.089 µM in the data set with HRV-1A; 0.044 µM in the data set on ECHO 11; 0.148 µM in the data set on HRV-10; 0.2 µM with CAV-21. The CC50 in the data set on H1-HeLa cells (table line HRV-1A), with H1-HeLa cells (table line HRV-10) and in the data set on MRC-5 cells was over 10 µM in each case. Moreover, the CC50 at 2 days in data set [1] and in data set [2] was over 10 µM each time. The half-maximal cytotoxic concentration (CC50) (usually the concentration giving 50% cytotoxicity) at 4 days in data set [3] was over 10 µM. Besides, in data set [4], the kinact/KI worked out at 690000 M⁻¹ s⁻¹.

For the origin of these results see patent US6872745B2, “Antipicornaviral compounds and compositions, their pharmaceutical uses, and materials for their synthesis” (Agouron Pharmaceuticals, Inc., priority 2000, dated 2005).
